Test system: wild mustard algae strain
Assay: Efficacy of zinc and chelating agents against mustard algae (biomass over time by absorbance at 450 nm and visual assessment)
Type: cell-based
Conditions: FIGS. 1-4
Description: A wild mustard algae strain isolated from a residential swimming pool was used in this study. This strain was re-suspended into sterile capped flasks of 250 ml capacity, containing 100 ml sterile Kratz/Meyers (KM) algae medium. Algae stock cultures were incubated at room temperature with a 16/8 hours on/off cycle white fluorescent lighting for approximately 2 weeks to obtain actively growing liquid cultures at the time of experiment.
Sterile KM medium was dispensed in 50 ml aliquots into sterile 125 ml capped Erlenmeyer flasks containing 40 glass beads of 6 mm diameter. Beads provided an increased surface area for algae to attach, since this alga develops as a loosely attached yellow growth on pool surfaces. Simultaneously, beads helped to homogenize samples by grinding at the time of sampling. An initial mustard algae culture of approximately 2×104 was set into each flask. […]
Algal cultures were challenged with 2 or 4 ppm zinc from zinc sulfate monohydrate combined with 2 or 10 ppm chelator. […] Biomass was measured over time by surrogate parameters: absorbance and visual assessment. Absorbance was measured at 450 nm using 1 inch cell in a spectrophotometer; visual assessment range was 0-3, where “0” equal to no growth and “3” equal to very heavy growth. The results of the optical readings were arithmetically averaged. […]

O=P1([O-])OP(=O)([O-])OP(=O)([O-])OP(=O)([O-])OP(=O)([O-])OP(=O)([O-])O1.[Na+].[Na+].[Na+].[Na+].[Na+].[Na+] [SHMP, sodium hexametaphosphate]
effect of chelating agent on the algaestatic activity of zinc ions (2 or 4 ppm zinc from zinc sulfate monohydrate combined with 2 or 10 ppm chelator, 3 weeks, compared with zinc alone): enhanced the performance of the algaestatic activity of zinc ions at all concentrations
dependence of the enhancing effect on the ratio of zinc to SHMP (zinc to SHMP ratios 2:1 to 1:5): effect became greater with increasing amount of SHMP to a ratio of 1:5

Reference: patent publication US20130136803A1, “COMPOSITIONS FOR ALGAE TREATMENT IN RECIRCULATING AND STAGNANT WATER SYSTEMS” (ARCH CHEMICALS, INC., priority 2011, published 2013)
